# Test results from patent US4370335A, “Antisecretory 4-diphenylmethyl-1-[(oxoalkyl)imino]methyl-piperidines and their derivatives” (McNeilab, Inc., priority 1982, dated 1983).
# Where a name gives a salt, the structure may show the parent alone.
# Tested on: gastric acid secretion
# Assay: Acute Gastric Fistula, Rat: inhibition of gastric acid secretion (Total Acid Output)
# Assay type: in vivo, Female Sprague-Dawley rats
# Conditions: po, 1 h, one hour prior to surgery, dose for average 50% inhibition in Total Acid Output versus controls, collection at one hour
# Description: The compounds of the invention are useful for inhibition of gastric acid secretion as measured by the following test. Female Sprague-Dawley rats are fasted twenty-four hours before testing and are given water ad libidum while being kept in individual cages. On the day of testing, the rats are weighed and are selected so that the rats in each test weigh within a range ±20 grams.
# Surgery is carried out under light ether anesthesia. As soon as the rat is anesthetized its teeth are removed and a mid-line incision is made on the abdomen about 11/2 inches in length and the stomach and duodenum are exposed. If at this point the stomach is filled with food or fecal material, the rat is discarded. If the condition of the stomach is acceptable, a purse string stitch is placed on the fundic portion of the stomach with a suture, taking care not to pierce any blood vessels in the area. A small nick is then made into the stomach in the center of the purse string, and a cannula, consisting of a small vinyl tube with a flange on one end, is put into the stomach, and the purse string stitch is closed tightly around the flange. The test compound is administered either intraduodenally (i.d.) immediately after surgery or orally (p.o.) one hour prior to surgery at doses generally ranging from about 0.25 to about 160 mg/kg in a volume of 0.5 ml/100 grams rat. Control rats receive the test vehicle, 0.5% aqueous methyl cellulose.
# After the surgery and (in the case of i.d. administration) after administration of the test compound, the abdominal wall and skin are closed simultaneously with three or four 18 mm wound clips and a collecting tube is placed on the cannula. Each rat is then placed in a box in which a longitudinal slit has been made to allow the cannula to hang freely and to allow the rat to move about unencumbered. After the rat has been allowed to stabilize for thirty minutes, the collection tube on the cannula is discarded and replaced with a clean tube to receive the gastric juice. Collections are made at one hour. At the end of the study, the cannula is removed and the rat is sacrificed.
# The sample of gastric contents collected is drained into a centrifuge tube and centrifuged to pack down the sediment. The volume is read and a 1 ml aliquot of the supernatant is put into a beaker containing 10 ml distilled water and is titrated to pH 7 using 0.01 N sodium hydroxide. Results are determined for Volume, Titratable Acid and Total Acid Output, where Volume equals total ml of gastric juice minus sediment; Titratable Acid (meq/l) equals amount of 0.01 N sodium hydroxide needed to titrate the acid to pH 7; and Total Acid Output equals Titratable Acid times Volume. Results are reported as the ED50 dose (mg/kg required to produce an average of 50% inhibition in Total Acid Output versus controls in all the animals tested for a particular compound) and as percent inhibition.
# The results obtained for representative compounds of the invention by the above test for inhibition of gastric secretion are shown in Table I: […]
row,Structure (SMILES),ED50 [mg/kg]
1,"CC1(CCCCCCN=CN2CCC(C(c3ccccc3)c3ccccc3)CC2)OCCO1 [Example 1, 4-(Diphenylmethyl)-1-{{[6-(2-methyl-1,3-dioxolan-2-yl)hexyl]imino}methyl}piperidine (E)-2-Butenedioate (1:1) Hydrate (10:7)]",3.14
2,"CC(=O)CCCCCCN=CN1CCC(C(c2ccccc2)c2ccccc2)CC1 [Example 2, 4-(Diphenylmethyl)-1-{[(7-oxooctyl)imino]methyl}piperidine (E)-2-Butenedioate (1:1) Hydrate (10:7)]",14.7
3,"CC(O)CCCCCCN=CN1CCC(C(c2ccccc2)c2ccccc2)CC1 (stereo not drawn) [Example 3, 4-(Diphenylmethyl)-1-{[(7-hydroxyoctyl)imino]methyl}piperidine 2-Naphthalenesulfonate (1:1) Hydrate (4:1)]",78.1
4,"CC(CCCCCCN=CN1CCC(C(c2ccccc2)c2ccccc2)CC1)=NO [Example 4, 4-(Diphenylmethyl)-1-{{[7-(hydroxyimino)octyl]imino}methyl}piperidine 2-Naphthalenesulfonate (1:1) Hydrate (5:1)]",12.3
5,CC(=O)CCCCCCCCN=CN1CCC(C(c2ccccc2)c2ccccc2)CC1 [Example 5],4.76
6,"CC(=O)CN=CN1CCC(C(c2ccccc2)c2ccccc2)CC1 [Example 6, 4-Diphenylmethyl-1-[(2-oxopropyl)imino]methyl piperidine Hydrochloride (1:1) Hydrate (10:1)]",6.07
